Data taken from patent publication US11090304B2 (Amgen Inc., priority 2018, dated 2021).

Target: GDP-bound KRAS protein (aa 1-169), containing both G12C and C118A amino acid substitutions (Homo sapiens, UniProt P01116, C118A/G12C)
Experiment: Coupled nucleotide exchange assay (SOS-mediated, AlphaScreen)
Type: biochemical
Settings: for Coupled exchange IC50 (5 min): 5 min compound pre-incubation; for Coupled exchange IC50 (2 h): 2 h compound pre-incubation

GDP-bound KRAS protein (aa 1-169), containing both G12C and C118A amino acid substitutions, sequence (P01116 1-169 isoform P01116-2 G12C/C118A): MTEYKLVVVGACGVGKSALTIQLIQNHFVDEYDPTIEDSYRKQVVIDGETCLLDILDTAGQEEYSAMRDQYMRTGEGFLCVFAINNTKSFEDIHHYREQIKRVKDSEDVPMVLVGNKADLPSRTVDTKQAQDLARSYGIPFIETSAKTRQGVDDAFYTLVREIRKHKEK

SMILES	Coupled exchange IC50 (5 min)	Coupled exchange IC50 (2 h)
C=CC(=O)N1CCN(c2nc(=O)n(-c3c(C)ccnc3C(C)C)c3nc(Cl)c(F)cc23)[C@@H](C)C1 [Example 58-21, 7-chloro-6-fluoro-1-(4-methyl-2-(2-propanyl)-3-pyridinyl)-4-((2S)-2-methyl-4-(2-propenoyl)-4-piperazinyl)pyrido[2,3-d]pyrimidin-2(1H)-one]	17.5 | nda μM	
C=CC(=O)N1CCN(c2nc(=O)n(-c3c(CC)ncnc3CC)c3nc(-c4ccccc4F)c(F)cc23)[C@@H](C)C1 [Example 58-22, 1-(4,6-diethyl-5-pyrimidinyl)-6-fluoro-7-(2-fluorophenyl)-4-((2S)-2-methyl-4-(2-propenoyl)-1-piperazinyl)pyrido[2,3-d]pyrimidin-2(1H)-one]	2.71 | nda μM	
C=CC(=O)N1CCN(c2nc(=O)n(-c3ccccc3C3(C(F)(F)F)CC3)c3nc(-c4c(O)cccc4F)c(F)cc23)[C@@H](C)C1 [Example 59-1, 6-Fluoro-7-(2-fluoro-6-hydroxyphenyl)-4-((2S)-2-methyl-4-(2-propenoyl)-1-piperazinyl)-1-(2-(1-(trifluoromethyl)cyclopropyl)phenyl)pyrido[2,3-d]pyrimidin-2(1H)-one]	2.98 | nda μM	
C=CC(=O)N1CCN(c2nc(=O)n(-c3c(C4CC4)ncnc3C3CC3)c3nc(-c4ccccc4F)c(F)cc23)[C@@H](C)C1 [Example 59-5, 1-(4,6-dicyclopropyl-5-pyrimidinyl)-6-fluoro-7-(2-fluorophenyl)-4-((2S)-2-methyl-4-(2-propenoyl)-1-piperazinyl)pyrido[2,3-d]pyrimidin-2(1H)-one]	0.501 | nda μM	
C=CC(=O)N1CCN(c2nc(=O)n(CC3(C(F)(F)F)CC3)c3nc(Cl)c(Cl)cc23)CC1 [Example 60-2, 6,7-dichloro-4-(4-(2-propenoyl)-1-piperazinyl)-1-((1-(trifluoromethyl)cyclopropyl)methyl)pyrido[2,3-d]pyrimidin-2(1H)-one]		nda | 7.62 μM
C=CC(=O)N1CCN(c2nc(=O)n(Cc3ccccn3)c3nc(-c4c(O)cccc4F)c(Cl)cc23)CC1 [Example 60-7]		nda | 26.9 μM
C=CC(=O)N1CCN(c2nc(=O)n(-c3ccccc3C)c3nc(Cl)c(Cl)cc23)[C@@H](C)C1 [Example 60-12, 6,7-dichloro-1-(2-methylphenyl)-4-((2S)-2-methyl-4-(2-propenoyl)-1-piperazinyl)pyrido[2,3-d]pyrimidin-2(1H)-one]	22.2 | nda μM	
C=CC(=O)N1CCN(c2nc(=O)n(-c3ccccc3C)c3nc(OCCCC)c(Cl)cc23)[C@@H](C)C1 [Example 60-13, 7-butoxy-6-chloro-1-(2-methylphenyl)-4-((2S)-2-methyl-4-(2-propenoyl)-1-piperazinyl)pyrido[2,3-d]pyrimidin-2(1H)-one]	85 | nda μM	
C=CC(=O)N1CCN(c2nc(=O)n(-c3c(F)cccc3F)c3nc(Cl)c(Cl)cc23)[C@@H](C)C1 [Example 60-16, 6,7-dichloro-1-(2,6-difluorophenyl)-4-((2S)-2-Methyl-4-(2-propenoyl)-1-piperazinyl)pyrido[2,3-d]pyrimidin-2(1H)-one]	46.1 | nda μM	
C=CC(=O)N1CCN(c2nc(=O)n(-c3c(F)cccc3F)c3nc(-c4c(O)cccc4F)c(Cl)cc23)[C@@H](C)C1 [Example 60-17, 6-chloro-1-(2,6-difluorophenyl)-7-(2-fluoro-6-hydroxyphenyl)-4-((2S)-2-methyl-4-(2-propenoyl)-1-piperazinyl)pyrido[2,3-d]pyrimidin-2(1H)-one]	5.74 | nda μM	
C=CC(=O)N1CCN(c2nc(=O)n(CC3CCN(C(=O)OC(C)(C)C)CC3)c3nc(Cl)c(Cl)cc23)[C@@H](C)C1 [Example 60-25, 2-methyl-2-propanyl 4-((6,7-dichloro-4-((2S)-2-methyl-4-(2-propenoyl)-1-piperazinyl)-2-oxopyrido[2,3-d]pyrimidin-1(2H)-yl)methyl)-1-piperidinecarboxylate]	25.5 | nda μM	
C=CC(=O)N1CCN(c2nc(=O)n(-c3ccccc3C(C)O)c3nc(-c4c(O)cccc4F)c(Cl)cc23)[C@@H](C)C1 (stereo partly drawn) [Example 60-27, 6-chloro-7-(2-fluoro-6-hydroxyphenyl)-1-(2-((1R)-1-hydroxyethyl)phenyl)-4-((2S)-2-methyl-4-(2-propenoyl)-1-piperazinyl)pyrido[2,3-d]pyrimidin-2(1H)-one | 6-chloro-7-(2-fluoro-6-hydroxyphenyl)-1-(2-((1S)-1-hydroxyethyl)phenyl)-4-((2S)-2-methyl-4-(2-propenoyl)-1-piperazinyl)pyrido[2,3-d]pyrimidin-2(1H)-one]	1.3 | nda μM	
C=CC(=O)N1CCN(c2nc(=O)n(-c3c(C)cccc3C(C)C)c3nc(-c4c(O)cccc4F)c(F)cc23)C[C@@H]1C [Example 63-1, 6-Fluoro-7-(2-fluoro-6-hydroxyphenyl)-1-(2-methyl-6-(2-propanyl)phenyl)-4-((3S)-3-methyl-4-(2-propenoyl)-1-piperazinyl)pyrido[2,3-d]pyrimidin-2(1H)-one]	2.15 | nda μM	
C=CC(=O)N1CCN(c2nc(=O)n(-c3c(CC)cccc3CC)c3nc(N4CC[C@H](C)C4)c(Cl)cc23)[C@@H](C)C1 [Example 66-5, 6-chloro-1-(2,6-diethylphenyl)-4-((2S)-2-methyl-4-(2-propenoyl)-1-piperazinyl)-7-((3S)-3-methyl-1-pyrrolidinyl)pyrido[2,3-d]pyrimidin-2(1H)-one]	21.2 | nda μM	
C=CC(=O)N1CCN(c2nc(=O)n(-c3c(CC)cccc3CC)c3nc(N4CC[C@H](F)C4)c(Cl)cc23)[C@@H](C)C1 [Example 66-6, 6-chloro-1-(2,6-diethylphenyl)-7-((3S)-3-fluoro-1-pyrrolidinyl)-4-((2S)-2-methyl-4-(2-propenoyl)-1-piperazinyl)pyrido[2,3-d]pyrimidin-2(1H)-one]	14.9 | nda μM	
C=CC(=O)N1CCN(c2nc(=O)n(-c3c(CC)cccc3CC)c3nc(N4CC[C@@H](F)C4)c(Cl)cc23)[C@@H](C)C1 [Example 66-7, 6-chloro-1-(2,6-diethylphenyl)-7-((3R)-3-fluoro-1-pyrrolidinyl)-4-((2S)-2-methyl-4-(2-propenoyl)-1-piperazinyl)pyrido[2,3-d]pyrimidin-2(1H)-one]	88 | nda μM	
C=CC(=O)N1CCN(c2nc(=O)n(-c3c(CC)cccc3CC)c3nc(N4CCC[C@@H]4CO)c(Cl)cc23)[C@@H](C)C1 [Example 66-9, 6-chloro-1-(2,6-diethylphenyl)-7-((2R)-2-(hydroxymethyl)-1-pyrrolidinyl)-4-((2S)-2-methyl-4-(2-propenoyl)-1-piperazinyl)pyrido[2,3-d]pyrimidin-2(1H)-one]	99.5 | nda μM	
C=CC(=O)N1CCN(c2nc(=O)n(-c3c(CC)cccc3CC)c3nc(N4CCC(C)C4)c(Cl)cc23)[C@@H](C)C1 (stereo partly drawn) [Example 66-10, 6-chloro-1-(2,6-diethylphenyl)-4-((2S)-2-methyl-4-(2-propenoyl)-1-piperazinyl)-7-(3-methyl-1-pyrrolidinyl)pyrido[2,3-d]pyrimidin-2(1H)-one]	26.4 | nda μM	
C=CC(=O)N1CCN(c2nc(=O)n(-c3c(CC)cccc3CC)c3nc(N4CCC(CC)C4)c(Cl)cc23)[C@@H](C)C1 (stereo partly drawn) [Example 66-11, 6-chloro-1-(2,6-diethylphenyl)-7-(3-ethyl-1-pyrrolidinyl)-4-((2S)-2-methyl-4-(2-propenoyl)-1-piperazinyl)pyrido[2,3-d]pyrimidin-2(1H)-one]	29 | nda μM	
C=CC(=O)N1CCN(c2nc(=O)n(-c3c(CC)cccc3CC)c3nc(N4CCC(CC(C)C)C4)c(Cl)cc23)[C@@H](C)C1 (stereo partly drawn) [Example 66-12, 6-chloro-1-(2,6-diethylphenyl)-4-((2S)-2-methyl-4-(2-propenoyl)-1-piperazinyl)-7-(3-(2-methylpropyl)-1-pyrrolidinyl)pyrido[2,3-d]pyrimidin-2(1H)-one]	65 | nda μM	
C=CC(=O)N1CCN(c2nc(=O)n(-c3c(CC)cccc3CC)c3nc(N4CCC(F)(F)C4)c(Cl)cc23)[C@@H](C)C1 [Example 66-14, 6-chloro-1-(2,6-diethylphenyl)-7-(3,3-difluoro-1-pyrrolidinyl)-4-((2S)-2-methyl-4-(2-propenoyl)-1-piperazinyl)pyrido[2,3-d]pyrimidin-2(1H)-one]	5.51 | nda μM	
C=CC(=O)N1CCN(c2nc(=O)n(-c3c(CC)cccc3CC)c3nc(N4CCOC(CC)C4)c(Cl)cc23)[C@@H](C)C1 (stereo partly drawn) [Example 66-15, 6-chloro-1-(2,6-diethylphenyl)-7-(2-ethyl-4-morpholinyl)-4-((2S)-2-methyl-4-(2-propenoyl)-1-piperazinyl)pyrido[2,3-d]pyrimidin-2(1H)-one]	89.7 | nda μM	
C=CC(=O)N1CCN(c2nc(=O)n(-c3c(CC)cccc3CC)c3nc(N4CCOC5(CCCC5)C4)c(Cl)cc23)[C@@H](C)C1 [Example 66-17, 6-chloro-1-(2,6-diethylphenyl)-4-((2S)-2-methyl-4-(2-propenoyl)-1-piperazinyl)-7-(6-oxa-9-azaspiro[4.5]decan-9-yl)pyrido[2,3-d]pyrimidin-2(1H)-one]	75.5 | nda μM	
C=CC(=O)N1CCN(c2nc(=O)n(-c3c(CC)cccc3CC)c3nc(N4CCOC(C(C)C)C4)c(Cl)cc23)[C@@H](C)C1 (stereo partly drawn) [Example 66-18, 6-chloro-1-(2,6-diethylphenyl)-4-((2S)-2-methyl-4-(2-propenoyl)-1-piperazinyl)-7-(2-(2-propanyl)-4-morpholinyl)pyrido[2,3-d]pyrimidin-2(1H)-one]	76.7 | nda μM	
C=CC(=O)N1CCN(c2nc(=O)n(-c3c(CC)cccc3CC)c3nc(N4CCC(CC)(CC)C4)c(Cl)cc23)[C@@H](C)C1 [Example 66-20, 6-chloro-1-(2,6-diethylphenyl)-7-(3,3-diethyl-1-pyrrolidinyl)-4-((2S)-2-methyl-4-(2-propenoyl)-1-piperazinyl)pyrido[2,3-d]pyrimidin-2(1H)-one]	28.2 | nda μM	
C=CC(=O)N1CCN(c2nc(=O)n(-c3c(CC)cccc3CC)c3nc(N4CCC(C(C)(C)C)C4)c(Cl)cc23)[C@@H](C)C1 (some centres unmarked) [Example 66-21]	33 | nda μM	
